Some test systems named below: HS 578T breast; SW-620 colon; RPMI-8226 leukemia; SF-268 CNS; SF-295 CNS; TK-10 renal; MDA-MB-435; SN12C renal; HCC-2998 colon; A549 NSCLC.
Experiment in all cases: growth of human tumour cells (NCI), 48 h

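Method: 48-hour compound exposure of cells in 96-well plates, five concentrations, linear interpolation of endpoints. Abbreviation: GI50, concentration required for 50% inhibition of growth. TGI: concentration producing complete growth inhibition.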 A value given as a limit tells only on which side of the number the result lay.

On to `COc1ccc(/C=C2\C[C@H]3[C@@H]4CCC5=C/C(=N/O)CC[C@]5(C)[C@H]4CC[C@]3(C)\C2=N\O)cc1`, for which the TGI was over 100 µM in the test on HS 578T breast; over 100 µM with SW-620 colon; 93.5 µM in the test on RPMI-8226 leukemia; over 100 µM with SF-268 CNS; over 100 µM in the test with SF-295 CNS; over 100 µM in the test on TK-10 renal. The TGI in the test with MDA-MB-435 was over 100 µM; in the test with SN12C renal, over 100 µM; with HCC-2998 colon, 49.7 µM; with A549 NSCLC, over 100 µM.

In the case of `C/C(=N\NC(=S)N1CCC(N2CCCCC2)CC1)c1ccccn1`, the TGI was 31.7 µM with HS 578T breast; 12.2 µM in the test with SW-620 colon; over 29.4 µM with RPMI-8226 leukemia; 12.9 µM in the test on SF-268 CNS; 7.12 µM in the test with SF-295 CNS; 6.29 µM in the test with TK-10 renal. Also, the TGI was 6 µM with MDA-MB-435, 8.17 µM in the test on SN12C renal, over 24.3 µM in the test on HCC-2998 colon and 10.3 µM with A549 NSCLC.

In the case of `C[C@H]1C2Cc3cc(O)ccc3[C@@]1(C)CCN2CCc1ccc(N)cc1`, the TGI with HS 578T breast was over 100 µM; with SW-620 colon, 36 µM; with RPMI-8226 leukemia it was over 100 µM; in the test with SF-268 CNS, 52.6 µM; with SF-295 CNS, 53.7 µM; with TK-10 renal it was over 100 µM. The TGI in the test on MDA-MB-435 was 32.5 µM; with SN12C renal it was over 100 µM; in the test on HCC-2998 colon, 26.4 µM; in the test on A549 NSCLC it was over 100 µM.

For the molecule `COc1cc(C2c3cc4c(cc3OC(NNS(=O)(=O)c3ccc(C)cc3)C2C)OCO4)cc(OC)c1OC` (stereo not given), the TGI in the test with HS 578T breast was 15.2 µM; with SW-620 colon, over 100 µM; with RPMI-8226 leukemia it was 18.4 µM; in the test with SF-268 CNS it was over 70.5 µM; with SF-295 CNS, 6.86 µM; in the test on TK-10 renal it was over 79 µM. Moreover, the TGI in the test with MDA-MB-435 is 2.25 µM; in the test with SN12C renal it was over 71.4 µM; in the test with HCC-2998 colon it was over 23.4 µM; in the test with A549 NSCLC, 34.4 µM.

Take `COc1cc(/C=N/N=C(\N)NO)cc(OC)c1OC`: the TGI in the test on HS 578T breast was over 100 µM; in the test on SW-620 colon it was over 100 µM; in the test with RPMI-8226 leukemia, over 100 µM; with SF-268 CNS, over 100 µM; in the test with SF-295 CNS, 53.2 µM; in the test with TK-10 renal, over 100 µM. The TGI with MDA-MB-435, in the test on SN12C renal, in the test with HCC-2998 colon and with A549 NSCLC was over 100 µM each time.

Consider `N#CC1=C(N)N(/N=C/c2ccccc2)C(c2ccccc2)C1(C#N)C#N` (stereo not given), for which the TGI in the test on HS 578T breast was determined as 66.7 µM; in the test with SW-620 colon it was 14.5 µM; in the test on RPMI-8226 leukemia, 18.5 µM; with SF-268 CNS it was 46 µM; with SF-295 CNS it was 39.5 µM; in the test on TK-10 renal, 16.7 µM. For the same molecule, the TGI with MDA-MB-435 was determined as 33.7 µM; in the test with SN12C renal, 31 µM; in the test on HCC-2998 colon, 34.9 µM; with A549 NSCLC it was 43.1 µM.

As to `Cc1cc(N/N=C/c2nc(-c3ccc(Cl)cc3)oc2C)c2cc(Br)ccc2n1`, the GI50 with HS 578T breast is 4.33 µM; in the test on SW-620 colon, 1.87 µM; in the test with RPMI-8226 leukemia, 1.95 µM; in the test on SF-268 CNS, 3.7 µM; in the test with SF-295 CNS it was 12.4 µM; with TK-10 renal, 1.8 µM. In addition, the GI50 in the test with MDA-MB-435 is 1.91 µM; in the test with SN12C renal, 2.05 µM; in the test with HCC-2998 colon, 3.58 µM; in the test on A549 NSCLC it was 1.77 µM. In addition, the TGI in the test on HS 578T breast is 28.3 µM; in the test with SW-620 colon, 4.23 µM; in the test with RPMI-8226 leukemia it was 4.81 µM; in the test on SF-268 CNS, 28.2 µM; in the test with SF-295 CNS it was 26.6 µM; in the test with TK-10 renal, 3.49 µM. Further, the TGI was 3.94 µM with MDA-MB-435, 4.38 µM in the test with SN12C renal, 12.5 µM with HCC-2998 colon and 3.71 µM in the test on A549 NSCLC.

For the molecule `COC(=O)c1c(CC(Cc2ccc3c(c2)CCCC3)C(=O)O)ccc2c1CCCC2` (stereo not given), the TGI with HS 578T breast was 79.4 µM; in the test on SW-620 colon, over 100 µM; in the test on RPMI-8226 leukemia it was 73.3 µM; in the test with SF-268 CNS, over 100 µM; in the test on SF-295 CNS it was over 100 µM; in the test on TK-10 renal, over 100 µM. Moreover, the TGI in the test with MDA-MB-435 was over 100 µM; in the test with SN12C renal, over 100 µM; in the test with HCC-2998 colon, 70.2 µM; in the test on A549 NSCLC, over 100 µM.

With `Cc1cccc2[nH]c3c(c(O)cc4[nH]c5cccc(C)c5c(=O)c43)c(=O)c12`, the TGI with HS 578T breast, with SW-620 colon, in the test with RPMI-8226 leukemia, in the test with SF-268 CNS, in the test with SF-295 CNS and in the test with TK-10 renal was over 10 µM in each case. The TGI with MDA-MB-435, in the test on SN12C renal, in the test with HCC-2998 colon and in the test on A549 NSCLC was over 10 µM throughout.

As for `N#[N+]c1c([O-])c2ccccc2c2ccccc12`, the TGI in the test on HS 578T breast, in the test with SW-620 colon, with RPMI-8226 leukemia, in the test with SF-268 CNS, in the test on SF-295 CNS and with TK-10 renal was over 100 µM in each case. In addition, the TGI with MDA-MB-435, in the test on SN12C renal, with HCC-2998 colon and with A549 NSCLC was over 100 µM in each case.

With `COc1ccc2c(O)c(S(=O)(=O)c3ccc(C)cc3)c(=O)oc2c1OC`, the TGI in the test on HS 578T breast, in the test with SW-620 colon, in the test on RPMI-8226 leukemia, with SF-268 CNS, in the test with SF-295 CNS and with TK-10 renal was over 100 µM in each case. Moreover, the TGI in the test with MDA-MB-435, in the test with SN12C renal, in the test with HCC-2998 colon and in the test on A549 NSCLC was over 100 µM throughout.

For the origin of these results see PubChem BioAssay (NCI).
